The text below walks through data of patent publication US20150218212A1, “FLUORINATED EPOXYKETONE-BASED TETRAPEPTIDE COMPOUNDS AND USES THEREOF AS PROTEASOME INHIBITORS” (FLUORINOV PHARMA INC., priority 2012, published 2015).

Assay [1] has as its system MDA-MB-435. The experiment in a line: NCI screening panel, MDA-MB-435 (Melanoma). Format: cell-based, human. As for the experimental part:
Representative compounds of Formula I were screened using the National Cancer Institute (NCI) screening panel, which consists of a panel of human tumor cell lines, representing leukemia, melanoma, and cancers of the lung, colon, ovary, breast, prostate and renal system.
After 24 h, two plates of each cell line are fixed in situ with TCA, to represent a measurement of the cell population for each cell line at the time of drug addition (Tz). Experimental drugs are solubilised in dimethyl sulfoxide at 400-fold the desired final maximum test concentration and stored frozen prior to use. At the time of drug addition, an aliquot of frozen concentrate is thawed and diluted to twice the desired final maximum test concentration with complete medium containing 50 μg/mL gentamicin. Additional four, 10-fold or ½ log serial dilutions are made to provide a total of five drug concentrations plus control. Aliquots of 100 μl of these different drug dilutions are added to the appropriate microtiter wells already containing 100 μl of medium, resulting in the required final drug concentrations.
Following drug addition, the plates are incubated for an additional 48 h at 37° C., 5% CO2, 95% air, and 100% relative humidity. For adherent cells, the assay is terminated by the addition of cold TCA (trichloroacetic acid). Cells are fixed in situ by the gentle addition of 50 μl of cold 50% (w/v) TCA (final concentration, 10% TCA) and incubated for 60 minutes at 4° C. The supernatant is discarded, and the plates are washed five times with tap water and air dried. Sulforhodamine B (SRB) solution (100 μl) at 0.4% (w/v) in 1% acetic acid is added to each well, and plates are incubated for 10 minutes at room temperature. After staining, unbound dye is removed by washing five times with 1% acetic acid and the plates are air dried. Bound stain is subsequently solubilised with 10 mM trizma base, and the absorbance is read on an automated plate reader at a wavelength of 515 nm. For suspension cells, the methodology is the same except that the assay is terminated by fixing settled cells at the bottom of the wells by gently adding 50 μl of 80% TCA (final concentration, 16% TCA). Using the seven absorbance measurements [time zero, (Tz), control growth, (C), and test growth in the presence of drug at the five concentration levels (Ti)], the percentage growth is calculated at each of the drug concentrations levels. Percentage growth inhibition is calculated as: [(Ti−Tz)/(C−Tz)]×100 for concentrations for which Ti>/=Tz and [(Ti−Tz)/Tz]×100 for concentrations for which Ti<Tz.
Three dose response parameters are calculated for each experimental agent. Growth inhibition of 50% (GI50) is calculated from [(Ti−Tz)/(C−Tz)]×100=50, which is the drug concentration resulting in a 50% reduction in the net protein increase (as measured by SRB staining) in control cells during the drug incubation. The drug concentration resulting in total growth inhibition (TGI) is calculated from Ti=Tz. The LC50 (concentration of drug resulting in a 50% reduction in the measured protein at the end of the drug treatment as compared to that at the beginning) indicating a net loss of cells following treatment is calculated from [(Ti−Tz)/Tz]×100=−50. Values are calculated for each of these three parameters if the level of activity is reached. However, if the effect is not reached or is exceeded, the value for that parameter is expressed as greater or less than the maximum or minimum concentration tested.

The target in assay [2] is T1, proteasome Chymotrypsin-like (CT-L) activity (Mus musculus, UniProt O09061+O55234).
T1 construct: RBCs were lysed with assay lysis buffer and incubated on ice for 30 minutes; from tissue; host or cells: red blood cells of NOD/SCID mice
Kind of assay: Pharmacodynamic proteasome activity in murine red blood cells, CT-L. The settings on record: iv, mice, 2 mg/kg i.v. The assay is classed as in vivo, NOD/SCID mice. As for the experimental part: Cells were harvested by centrifugation at 1,200 rpm at room temperature. Cell pellets were washed with PBS (phosphate buffered saline) and lysed with assay lysis buffer (50 mM HEPES (N-2-hydroxyethylpiperazine-N′-2-ethanesulfonic acid), pH 7.5; 150 mM NaCl; 1% Triton X-100; 2 mM ATP). Cell lysates were incubated on ice for 30 minutes, mixed by vortex every 5 minutes, and then centrifuged at 12,000 g for 10 minutes. The supernatant was transferred to a 96-well plate. For each assay, 10 μg of total protein were incubated for 1 hour at 37° C. with increasing concentrations (1 nM to 10 μM) of test compound diluted in assay buffer (50 mM tris-HCl (tris(hydroxymethyl)aminomethane-HCl), pH 7.5; 150 mM NaCl). DMSO alone was used as a control in every assay plate. After incubation, a specific fluorogenic proteasome substrate was added to each assay reaction at a final concentration of 40 μM in a total volume of 100 μL. N-Succinyl-Leu-Leu-Val-Tyr-7-amino-4-methylcoumarin (Suc-Leu-Leu-Val-Tyr-AMC) was used for measuring chymotrypsin-like (CT-L) activity, t-butoxycarbonyl-Leu-Arg-Arg-7-amino-4-methylcoumarin (Boc-Leu-Arg-Arg-AMC) for trypsin-like (T-L) activity, and benzyloxycarbonyl-L-leucyl-L-leucyl-L-glutamyl-7-amino-4-methylcoumarin (Z-Leu-Leu-Glu-AMC) for caspase-like (C-L) activity. The excitation wavelength was set at 360 nm and the fluorescence emission wavelength of AMC was detected at 460 nm. The fluorescence of free AMC released during the enzymatic reaction was measured with a SpectraMax M5 fluorescent spectrophotometric plate reader (Molecular Devices, Sunnyvale, Calif.). AMC release rate was measured at 37° C. in a kinetic mode, recording every 5 minutes for 30 minutes. Experiments were performed in triplicate and repeated at least twice.
All mouse experiments were performed in accordance with approval from the Ontario Cancer Institute institutional animal review board. Five- to six-week-old male non-obese diabetic/severe combined immunodeficient (NOD/SCID) mice were grouped randomly (n=3 mice per group). Mice were administered vehicle (5% DMSO, 20% Cremophor) or compounds of Formula I at different doses either intravenously or by oral gavage, and venous blood samples (20-50 μL) were collected from each mouse over 24 hours. Blood samples were mixed with heparin (APP Pharmaceuticals; Schaumburg, Ill.) in 0.5 mL tubes in accordance with the manufacturer's instructions. After centrifugal separation at 3,000 g for 10 minutes, red blood cells (RBCs) in the bottom layer were transferred into a new tube and stored at −70° C. until use. RBCs were lysed with assay lysis buffer and incubated on ice for 30 minutes, mixing by vortex every 5 minutes, and then centrifuged at 12,000 g for 10 minutes. The supernatant was transferred to a 96-well plate and proteasome activity was measured as described above for tumor cell lysates.
Proteasome subunit activity (Chymotrypsin-like, Trypsin-like, Caspase-like, CT-L, T-L, C-L, respectively) were monitored over the course of 24 hrs following […] administration of representative compounds of Formula I. NOD/SCID mice were treated with compounds of Formula I (2 mg/kg by iv administration) or vehicle control and carfilzomib for up to 24 hours, as described above. Table 9 summarizes the data on pharmacodynamic activity of representative compounds of Formula I following a dose of 2 mg/kg intravenous (i.v) administration to mice. Data are presented as mean residual activity (SEM) relative to vehicle treated controls.

Like-named read-outs stand apart in the source and are kept apart here.

Take `CC(C)C[C@H](NC(=O)[C@H](COC(F)F)NC(=O)[C@H](COC(F)F)NC(=O)[C@H](COC(F)F)NC(=O)CN1CCOCC1)C(=O)[C@@]1(C)CO1` [Example 17, (2S)-3-(difluoromethoxy)-N-[(1S)-1-(difluoromethoxymethyl)-2-[[(1S)-1-(difluoro-methoxymethyl)-2-[[(1S)-3-methyl-1-[(2R)-2-methyloxirane-2-carbonyl]butyl]amino]-2-oxo-ethyl]amino]-2-oxo-ethyl]-2-[(2-mor-pholinoacetyl)amino]-propanamide]: in assay [1], the Log10GI50 was −7.42, the Log10LC50 was −6.29 and the Log10TGI50 is reported as −6.81. For the same compound, the remaining activity at 2 mg/kg in assay [2] (30 min, read-out: Chymotrypsin-like (CT-L) mean residual activity relative to vehicle treated controls) was 25%. In addition, the remaining activity at 2 mg/kg in assay [2] (24 hrs, read-out: Chymotrypsin-like (CT-L) mean residual activity relative to vehicle treated controls) stood at 23%. Also, the remaining activity at 2 mg/kg in assay [2] (time 0, read-out: Chymotrypsin-like (CT-L) mean residual activity relative to vehicle treated controls) turned out to be 100%.
